The values below come from article PMC4021972 (2014).

The assay deals with KRAS utr-2 (RNA, G4) GGAAGGCGGCGG
As to the kind of experiment: UV-vis titration (Soret band). The note with it: 100 mM KCl; 50 mM Tris-HCl pH 7.4 (from methods); 6 μM C14 titrated with G4-RNA; simple binding equation.

The structures appear in SMILES notation.

With `CCCCCCCCCCCCCC[n+]1ccc(-c2c3nc(c(-c4cc[n+](C)cc4)c4ccc([nH]4)c(-c4cc[n+](C)cc4)c4nc(c(-c5cc[n+](C)cc5)c5ccc2[nH]5)C=C4)C=C3)cc1`, the KD was ~ 5 × 10^-7 M.
